≈ marks a conversion by molar mass, not a printed value.
Legend:
[1] = test system: Haemophilus duceryi ATCC 33921; experiment: Anti-Ducreyi activity by agar disc diffusion; assay type: cell-based, Haemophilus ducreyi; details: H. duceryi ATCC 33921 (Tetracycline Sensitive); 10 μg disc, positive control
Method: A tetracycline sensitive strain of H. duceryi ([…]) was cultured on Chanchroid agar (GC agar supplemented with 2% haemoglobin, 5% FBS and 1% isovitalex and incubated at 33° C. for 72 hrs. in a candle jar with 45% moisture. The strain was identified by colony characteristics, Gram stain, growth characteristics (requirement for X and V factors) and Tween 80 hydrolysis as described earlier, and stored at −70° C. in brain heart infusion broth containing 20% glycerol.
The inoculum of each strain was prepared following the CLSI guidelines for bacteria and yeasts. The 0.5 McFarland standard inoculums (approx. 1.5×10^8 CFU/ml) of N. gonorrhoeae, H. duceryi and C. albicans were prepared from freshly grown cultures, in sterile 0.85% normal saline and mixed thoroughly. […]
The primary screening of plant extracts for activity against the three microorganisms included in the study was carried out by Kirby Baur agar disc diffusion method as described earlier. […] The discs (extract/fraction and controls) were placed on the plates previously inoculated with the respective bacterial/fungal culture, incubated as mentioned above and the zone of inhibition was recorded. […] The minimum inhibitory and minimum cidal concentrations of the extracts showing inhibition were determined using following methods.

[2] = Cytotoxicity in Vero cells; assay type: cell-based; details: African green monkey, cytotoxic concentration
Method: (§1) The methanol extracts of the plant parts and their fractions separated as less polar, medium polar and polar fractions using column chromatography or solvent separation/partitioning, were assessed for toxicity and subsequently for inhibition of HSV-2 in Vero cells by plaque reduction assay. These extracts and fractions were also tested for anti-HIV-1 activity and inhibition of other sexually transmitted pathogens like C. albicans, N gonorrhoea and H. ducreyi.
(§2) According to Table 3, the extracts of plant species selected from the group consisting of Polygonum glabrum, Rhus mysorensis, Terminalia paniculata, Cuscuta reflexa, Terminalia crenulata, Cassytha filiformis, Scutia myrtina, were studied for cytotoxicity in Vero cells.

[3] = test system: Vero cells; experiment: Cytotoxicity in Vero cells; assay type: cell-based; details: cytotoxic concentration
Method: as §1, §2

[4] = test system: HSV-2; experiment: Anti-HSV-2 plaque reduction assay in Vero cells; assay type: cell-based, Herpes Simplex Virus Type-2; details: HSV-2 plaque assay
Method: 13 wild plant species belonging to eight families Convolvulaceae (3 species), Polygonaceae (2 species), Anacardiaceae (1 species), Combretaceae (2 species), Lauraceae (1 species), Asteraceae (2 species), Zingiberaceae (1 species) and Rhamnaceae (1 species) were selected.
as §1

[5] = Human alphaherpesvirus 2, Vero cells

Row | IC50 [4, 5] [µg/mL] | Molecule | zone of inhibition [1] [mm] | CC50 [2] [µg/mL] | CC80 [3] [µg/mL] | IC80 [4, 5] [µg/mL] | TI ([4]; Therapeutic Index)
1 |  | penicillin | 36 |  |  |  | 
2 | 5.6 (≈ 24.9 µM) | Nc1nc2c(ncn2COCCO)c(=O)[nH]1 [Acyclovir] |  | 806 (≈ 3580 µM) | 378 (≈ 1680 µM) | 2.81 (≈ 12.5 µM) | 151

Source: patent publication US20150320820A1, “MICROBIOCIDES FROM PLANT EXTRACTS FOR PROTECTION AGAINST HSV 2 INFECTION” (Council of Scientific and Industrial Research, priority 2012, published 2015)
